Source: publication PMC4776139, “Extended string-like binding of the phosphorylated HP1α N-terminal tail to the lysine 9-methylated histone H3 tail” (Scientific Reports, 2016)
pKd: −log10 of the molar value.

Assays:
[1] = tested on: H3K9me peptide (22-mer, amino acids 1–21 of histone H3 with a C-terminal tyrosine); assay: Isothermal titration calorimetry (ITC) of HP1α chromodomain constructs with H3K9me peptide; format: binding; conditions: for ΔS (entropy change): calculated from Kd and ΔH; for Ka / ΔH (enthalpy change): pH 6.80, one-site binding model; for pKd: VP-ITC, protein 40 μM in cell, titrated with 400 μM H3K9me peptide, one-site binding model; for fold weaker binding to H3K9me as compared with NCD^Δ1–9: relative to NCD^Δ1–9; for fold stronger binding to H3K9me than the CD alone: relative to CD (NCD^Δ1–19); for times more strongly bound H3K9me than the CD: relative to CD
Method: Protein solution (40 μM) was loaded into a VP-ITC isothermal titration calorimeter (Microcal, INC.) cell (active cell volume 1.4 ml). The solution was titrated against 400 μM ligand solution via a 250 μl titration syringe. Experiments were carried out at 20 °C. The ligand solution was prepared in the same buffer as the protein (20 mM KPB (pH 6.80), 10 mM NaCl). The heat of dilution generated by the ligand was subtracted, and the binding isotherms were fitted to a one-site binding model by using Origin 7 Software (Microcal, INC.). From the values of Kd and ΔH, the thermodynamic parameters, ΔG and ΔS were calculated according to the basic thermodynamic equations;

[2] = Small angle X-ray scattering (SAXS); format: physicochemical; conditions: for association state, in words: SAXS at 5, 10 and 15 mg/ml, no scattering from aggregated protein; for association state, in words / Dmax (maximum particle dimension): pH 6.8, 20 °C; for Rg (radius of gyration) / Estimated molecular weight (association state) / Dmax (maximum particle dimension): SAXS; for Rg (radius of gyration): Guinier plot; for Estimated molecular weight (association state): from I(0)/c compared to hen egg white lysozyme; for Dmax (maximum particle dimension): from P(r) function (GNOM); on Dmax (maximum particle dimension): values in Å; on Rg (radius of gyration): values in Å
Method: To confirm the structural differences between unmod-NCD and phos-NCD, small angle X-ray scattering (SAXS) experiments were carried out on CD, unmod-NCD, and phos-NCD. To check inter-particle interference, SAXS data were collect at three different protein concentrations, 5, 10 and 15 mg/ml (Supplementary Fig. S4). The radius of gyration Rg, and the estimated molecular weight from the forward scattering intensity I(0), of CD, unmod-NCD, and phos-NCD are summarized in Fig. 3. […] The Rg value of the CD at the three different protein concentrations was estimated as 14.0 ± 0.3, 13.8 ± 0.3 and 13.7 ± 0.2 Å, which are close to the Rg value calculated from the NMR structure of the CD (15.0 Å).
We converted the scattering profiles at 5 mg/ml to the P(r) function and the estimated maximum particle dimension, Dmax (Fig. 3). […] The Dmax of unmod-NCD (79 Å) and phos-NCD (94 Å) was larger than that of the CD (56 Å). The extended tail of the P(r) function and larger Dmax for unmod-NCD and phos-NCD is due to scattering from the N-terminal tail region in each case.
SAXS measurements were performed at 20 °C with a MicroMax007HF X-ray generator (Rigaku). A PILATUS100K detector (DECTRIS) at a distance of 561 mm from the sample was used to measure scattering intensities. Each sample solution was transferred to a quartz-window cell with a 1 mm path length. Circular averaging of the scattering intensities was carried out to obtain one-dimensional scattering data I(q) as a function of q (q = 4πsinθ/λ, where 2θ is the scattering angle and λ is the X-ray wavelength 1.5418 Å). To correct for interparticle interference, I(q) data were collected at three different protein concentrations (5, 10, and 15 mg/ml in 50 mM KPB (pH 6.8), 500 mM NaCl, and 5 mM DTT.). The total exposure times were 6 hours for 5 mg/ml, and 3 hours for both 10mg/ml and 15mg/ml. […] To estimate the molecular weight of samples, I(q) data were collected for hen egg white lysozyme (5.2 mg/ml in 50 mM KPB (pH 6.8), 500 mM NaCl). The data were processed by using the software applications embedded in the ATSAS package [ http://www.embl-hamburg.de/biosaxs/software.html]. The radius of gyration Rg and forward scattering intensity I(0) were estimated from the Guinier plot[35] of I(q) in the smaller angle region of qRg < 1.3. The distance distribution function P(r) was calculated in the program GNOM[36], where the experimental I(q) data were used in a q-range from 0.031 to 0.250 Å^−1. The maximum particle dimension Dmax was estimated from the P(r) function as the distance r for which P(r) = 0[35]. The I(q) and Rg of 20 models corresponding to the NMR structures were calculated by using the program CRYSOL[37] and averaged. The molecular weight of the sample was estimated by comparing I(0)/c (where c is the protein concentration) of the sample to that of lysozyme.

[3] = HSQC dilution check for dimer or multimer association; format: physicochemical; conditions: 10-fold diluted samples
Source text: It might be possible that the differences in chemical shift observed between unmod-NCD and phos-NCD originate from different dimer or multimer associations due to their N-terminal tails.

[4] = 20 mM KPB (pH 6.80), 10 mM NaCl, 20 °C
[5] = 5 mg/ml, exposure 1 h x6, 50 mM KPB (pH 6.8), 500 mM NaCl, 5 mM DTT, 20 °C
[6] = 10 mg/ml, exposure 1 h x3, pH 6.8, 20 °C
[7] = 15 mg/ml, exposure 1 h x3, pH 6.8, 20 °C

Row | Substance | ΔS (entropy change) ([1]; 20 °C) [cal/mol/K] | Ka ([1]; 20 °C) [M⁻¹] | ΔH (enthalpy change) ([1]; 20 °C) | pKd [1, 4] | fold weaker binding to H3K9me as compared with NCD^Δ1–9 [1] | fold stronger binding to H3K9me than the CD alone [1] | association state, in words [2] | Rg (radius of gyration) [2, 5] [Å] | Estimated molecular weight (association state) ([2]; 5 mg/ml) [kDa] | Dmax (maximum particle dimension) ([2]; 5 mg/ml) [Å] | Rg (radius of gyration) [2, 6] [Å] | Estimated molecular weight (association state) ([2]; 10 mg/ml) [kDa] | Rg (radius of gyration) [2, 7] [Å] | Estimated molecular weight (association state) ([2]; 15 mg/ml) [kDa] | times more strongly bound H3K9me than the CD [1] | fold stronger affinity for H3K9me than unmod-NCD ([1]; relative to unmod-NCD) | HSQC signal changes upon dilution [3] | binding to H3K9me relative to un-phosphorylated NCD^Δ1–9, in words [1] | Kd ([1]; 20 °C, 20 mM KPB (pH 6.80), 10 mM NaCl, value in nM) [nM]
1 | NCD^Δ1–4: N-terminal deletion mutant, amino acids 5–80 of HP1α | 7.75 | 1.31e+06 ± 50700 | -24.82 ± 0.09598 kJ/mol | 6.12 | about 4 -fold | – | – | – | – | – | – | – | – | – | – | – | – | – | –
2 | NCD^Δ1–9: N-terminal deletion mutant, amino acid 10–80 of HP1α | 5.66 | 6.04e+06 ± 255000 | -31.11 ± 0.07025 kJ/mol | 6.80 | – | about 83 -fold | – | – | – | – | – | – | – | – | – | – | – | – | –
3 | NCD^Δ1–14: acidic segment plus CD, amino acids 15–80 of HP1α | 1.13 | 397000 ± 40700 | -30.03 ± 0.4774 kJ/mol | 5.60 | – | about 5 -fold | – | – | – | – | – | – | – | – | – | – | – | – | –
4 | NCD^Δ1–19: CD domain alone, amino acids 20–80 of HP1α | -13.0 | 75000 ± 2300 | -1.036E4±103.0 cal/mol | 4.88 | – | – | monomer | 14.0 ± 0.3 | 6.6 | 56 | 13.8 ± 0.3 | 6.0 | 13.7 ± 0.2 | 6.1 | – | – | – | – | –
5 | phos-NCD: chromodomain with phosphorylated N-terminal tail, amino acids 1–80 of HP1α, co-expressed with casein kinase II | 2.23 | 5.87e+06 ± 521000 | -35.25 ± 0.184 kJ/mol | 6.77 | – | – | monomer | 18.9 ± 0.4 | 11.7 | 94 | 19.4 ± 0.4 | 11.7 | 19.8 ± 0.3 | 11.9 | about 80 times | approximately 10 -fold | no significant signal changes were observed | – | –
6 | phos-NCD^Δ1–4: NCD^Δ1–4 (amino acids 5–80) with phosphorylated serine residues | 1.14 | 2.61e+06 ± 236000 | -34.61 ± 0.251 kJ/mol | 6.42 | – | – | – | – | – | – | – | – | – | – | – | – | – | recovered to a value similar to that of un-phosphorylated NCD^Δ1–9 | –
7 | phos-NCD^Δ1–9: phosphorylated NCD^Δ1–9 form, amino acids 10–80 of HP1α | 12.6 | 2.58e+07 ± 5.24e+06 | -26.08 ± 0.1777 kJ/mol | – | – | about 330 -fold | – | – | – | – | – | – | – | – | more than 300 times | – | – | – | 40
8 | unmod-NCD: chromodomain with un-phosphorylated N-terminal tail, amino acids 1–80 of HP1α | 3.16 | 564000 ± 25900 | -28.41 ± 0.1897 kJ/mol | 5.75 | 6 -fold | – | monomer | 17.2 ± 0.4 | 8.8 | 79 | 17.0 ± 0.3 | 8.5 | 17.4 ± 0.3 | 8.8 | – | – | no significant signal changes were observed | – | –
